Measured values reported in patent publication US20060069132A1, “Azolecarboxamide herbicides” (priority 2004, published 2006).

Columns and labels:
Russian thistle = assay: Test E pre-/postemergence herbicide test; format: in vivo, Salsola kali; conditions: Preemergence
Source text: Seeds of plant species selected from bipinnate beggarticks (Bidens bipinnata L.), hairy beggarticks (Bidens radiata Thuill.), bermudagrass (Cynodon dactylon (L.) Pers.), Surinam grass (Urochloa decumbens (Staph) R. D. Webster, previously named Brachiaria decumbens Stapf), large crabgrass (Digitaria sanguinalis (L.) Scop.), green foxtail (Setaria viridis (L.) P. Beauv.), goosegrass (Eleusine indica (L.) Gaertn.), johnsongrass (Sorghum halepense (L.) Pers.), kochia (Kochia scoparia (L.) Schrad.), pitted morningglory (Ipomoea lacunosa L.), purple nutsedge (Cyperus rotundus L.), common ragweed (Ambrosia elatior L.), mustard (Brassica nigra (L.) W. D. J. Koch), guineagrass (Panicum maximum Jacq.), dallisgrass (Paspalum dilatatum Poir.), barnyardgrass (Echinochloa crus-galli (L). P. Beauv.), southern sandbur (Cenchrus echinatus L.), common sowthistle (Sonchus oleraceous L.), prickly sida (Sida spinosa L.), Italian ryegrass (Lolium multiflorum Lam.), common purslane (Portulaca oleracea L.), broadleaf signalgrass (Brachiaria platyphylla (Griseb.) Nash), common groundsel (Senecio vulgaris L.), common chickweed (Stellaria media (L.) Vill/Cyr.), tropical spiderwort (Commelina benghalensis L.), annual bluegrass (Poa annua L.), downy bromegrass (Bromus tectorum L.), itchgrass (Rottboellia cochinchinensis (L.) L.f.), quackgrass (Elytrigia repens (L.) Nevski), Canada horseweed (Erigeron Canadensis L.), field bindweed (Convolvulus arvensis L.), spotted spurge (Euphorbia maculata L.), common mallow (Malva sylvestris (=s silvestris) L.), and Russian thistle (Salsola kali L. ssp. Ruthenica (Iljin) Soo) were planted and treated preemergence with test chemicals formulated in a non-phytotoxic solvent mixture which included a surfactant.
At the same time, plants selected from these weed species were treated with postemergence applications of some of the test chemicals formulated in the same manner. Plants ranged in height from 2 to 18 cm (1- to 4-leaf stage) for postemergence treatments. Treated plants and controls were maintained in a greenhouse for 12 to 14 days, after which time all species were compared to controls and visually evaluated. Plant response ratings, summarized in Table E, are based on a scale of 0 to 100 where 0 is no effect and 100 is complete control. A dash (-) response means no test result.

winter barley = assay: Test C postemergence herbicide test; format: in vivo, Hordeum vulgare
In short: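 Greenhouse test with a 12–14 day hold after application and visual comparison with controls. Emerged plants were 1- to 4-leaf stage (2–18 cm) when sprayed postemergence, and the paddy barnyardgrass was at 2 leaves under flooded conditions. 100 = complete control.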

southern sandbur = assay: Test E pre-/postemergence herbicide test; format: in vivo, Cenchrus echinatus; conditions: Preemergence
In short: (§1)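 Herbicidal effect scored visually, 0–100 scale, versus controls. Treatments: preemergence on planted seed; postemergence on 2–18 cm seedlings. Greenhouse, 12 to 14 days.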

large crabgrass = assay: Test E pre-/postemergence herbicide test; format: in vivo, Digitaria sanguinalis; conditions: Preemergence
In short: as §1

prickly sida = assay: Test E pre-/postemergence herbicide test; format: in vivo, Sida spinosa; conditions: Preemergence
In short: as §1

Italian ryegrass = assay: Test E pre-/postemergence herbicide test; format: in vivo, Lolium multiflorum; conditions: Preemergence
In short: as §1

purple nutsedge = assay: Test E pre-/postemergence herbicide test; format: in vivo, Cyperus rotundus; conditions: Preemergence
In short: as §1

blackgrass = assay: Test C postemergence herbicide test; format: in vivo, Alopecurus myosuroides
In short: (§2)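 After a postemergence application at 1 to 4 leaves (plants 2–18 cm high), or at 2 leaves for barnyardgrass in flooded paddy, plants stayed in the greenhouse for 12 to 14 days. Damage was then judged visually relative to control plants, with 100 indicating complete control.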

tropical spiderwort = assay: Test E pre-/postemergence herbicide test; format: in vivo, Commelina benghalensis; conditions: Preemergence
In short: as §1

canarygrass = assay: Test C postemergence herbicide test; format: in vivo, Phalaris minor
In short: as §2

common purslane = assay: Test E pre-/postemergence herbicide test; format: in vivo, Portulaca oleracea; conditions: Preemergence
In short: as §1

kochia = assay: Test E pre-/postemergence herbicide test; format: in vivo, Kochia scoparia; conditions: Preemergence
In short: as §1

chickweed = assay: Test C postemergence herbicide test; format: in vivo, Stellaria media
In short: as §2

[1] = 500 g ai/ha, scale 0 (no effect) to 100 (complete control)
[2] = Postemergence, 125 g ai/ha, scale 0 to 100, 0 no effect, 100 complete control
[3] = Postemergence, 250 g ai/ha, scale 0 to 100, 0 no effect, 100 complete control
[4] = postemergence, 31 g ai/ha, scale 0 to 100
[5] = postemergence, 62 g ai/ha, scale 0 to 100 (0 no effect, 100 complete control)
[6] = 250 g ai/ha, scale 0 (no effect) to 100 (complete control)
[7] = postemergence, 125 g ai/ha, scale 0 to 100
[8] = postemergence, 62 g ai/ha, scale 0 to 100
[9] = 125 g ai/ha, scale 0 (no effect) to 100 (complete control)
[10] = Postemergence, 500 g ai/ha, scale 0 to 100

CCN1N=C(C(C)(C)C)CC1C(=O)Nc1cc(C(=O)N(C)C)ccc1F (stereo not shown) [Compound 268, N-[5-[(dimethylamino)carbonyl]-2-fluorophenyl]-3-(1,1-dimethylethyl)-1-ethyl-4,5-dihydro-1H-pyrazole-5-carboxamide]
Plant response rating, Thistle (Russian thistle; 125 g ai/ha, scale 0 to 100): 60 | Plant response rating, Thistle (Russian thistle; [1]): 100 | Plant response rating, Barley, Winter (winter barley; [2]): 15 | Plant response rating, Barley, Winter (winter barley; [3]): 30 | Plant response rating, Barley, Winter (winter barley; [4]): 0 | Plant response rating, Barley, Winter (winter barley; [5]): 0 | Plant response rating, Sandbur (southern sandbur; 62 g ai/ha, scale 0 to 100): 10 | Plant response rating, Sandbur (southern sandbur; 125 g ai/ha, scale 0 to 100): 70 | Plant response rating, Sandbur (southern sandbur; [6]): 100 | Plant response rating, Sandbur (southern sandbur; [1]): 100 | Plant response rating, Crabgrass, Large (large crabgrass; 62 g ai/ha, scale 0 to 100): 70 | Plant response rating, Crabgrass, Large (large crabgrass; 125 g ai/ha, scale 0 to 100): 80 | Plant response rating, Crabgrass, Large (large crabgrass; [6]): 95 | Plant response rating, Crabgrass, Large (large crabgrass; [1]): 95 | Plant response rating, Prickly Sida (prickly sida; 62 g ai/ha, scale 0 to 100): 60 | Plant response rating, Prickly Sida (prickly sida; 125 g ai/ha, scale 0 to 100): 80 | Plant response rating, Prickly Sida (prickly sida; [6]): 100 | Plant response rating, Prickly Sida (prickly sida; [1]): 100 | Plant response rating, Ryegrass, Italian (Italian ryegrass; 62 g ai/ha, scale 0 to 100): 95 | Plant response rating, Ryegrass, Italian (Italian ryegrass; 125 g ai/ha, scale 0 to 100): 95 | Plant response rating, Ryegrass, Italian (Italian ryegrass; [6]): 95 | Plant response rating, Ryegrass, Italian (Italian ryegrass; [1]): 95 | Plant response rating, Nutsedge, Purple (purple nutsedge; 62 g ai/ha, scale 0 to 100): 50 | Plant response rating, Nutsedge, Purple (purple nutsedge; 125 g ai/ha, scale 0 to 100): 70 | Plant response rating, Nutsedge, Purple (purple nutsedge; [6]): 85 | Plant response rating, Nutsedge, Purple (purple nutsedge; [1]): 85 | Plant response rating, Blackgrass (blackgrass; [3]): 60 | Plant response rating, Blackgrass (blackgrass; [7]): 45 | Plant response rating, Blackgrass (blackgrass; [4]): 0 | Plant response rating, Blackgrass (blackgrass; [8]): 30 | Plant response rating, Spiderwort (tropical spiderwort; 125 g ai/ha, scale 0 to 100): 70 | Plant response rating, Spiderwort (tropical spiderwort; [6]): 85 | Plant response rating, Spiderwort (tropical spiderwort; [1]): 90 | Plant response rating, Canarygrass (canarygrass; [3]): 50 | Plant response rating, Canarygrass (canarygrass; [7]): 30 | Plant response rating, Canarygrass (canarygrass; [4]): 10 | Plant response rating, Canarygrass (canarygrass; [8]): 10

CCNC(=O)c1cccc(NC(=O)c2cc(C(C)(C)C)nn2CC)n1 [Compound 144]
Plant response rating, Purslane (common purslane; 62 g ai/ha, scale 0 to 100): 0 | Plant response rating, Purslane (common purslane; [9]): 20 | Plant response rating, Purslane (common purslane; [6]): 90 | Plant response rating, Purslane (common purslane; [1]): 100 | Barley, Winter plant response rating (winter barley; [10]): 40 | Plant response rating, Barley, Winter (winter barley; [2]): 20 | Plant response rating, Barley, Winter (winter barley; [3]): 30 | Plant response rating, Barley, Winter (winter barley; [5]): 0 | Plant response rating, Kochia (kochia; 62 g ai/ha, scale 0 to 100): 0 | Plant response rating, Kochia (kochia; [9]): 60 | Plant response rating, Kochia (kochia; [6]): 90 | Plant response rating, Kochia (kochia; [1]): 90 | Plant response rating, Sandbur (southern sandbur; 62 g ai/ha, scale 0 to 100): 10 | Plant response rating, Sandbur (southern sandbur; [9]): 30 | Plant response rating, Sandbur (southern sandbur; [6]): 30 | Plant response rating, Sandbur (southern sandbur; [1]): 60 | Plant response rating, Crabgrass, Large (large crabgrass; 62 g ai/ha, scale 0 to 100): 0 | Plant response rating, Crabgrass, Large (large crabgrass; [9]): 40 | Plant response rating, Crabgrass, Large (large crabgrass; [6]): 50 | Plant response rating, Crabgrass, Large (large crabgrass; [1]): 60 | Chickweed plant response rating (chickweed; [10]): 100 | Plant response rating, Chickweed (chickweed; [3]): 100 | Plant response rating, Chickweed (chickweed; [7]): 100 | Plant response rating, Chickweed (chickweed; [8]): 100 | Plant response rating, Prickly Sida (prickly sida; 62 g ai/ha, scale 0 to 100): 10 | Plant response rating, Prickly Sida (prickly sida; [9]): 90 | Plant response rating, Prickly Sida (prickly sida; [6]): 90 | Plant response rating, Prickly Sida (prickly sida; [1]): 95 | Plant response rating, Ryegrass, Italian (Italian ryegrass; 62 g ai/ha, scale 0 to 100): 10 | Plant response rating, Ryegrass, Italian (Italian ryegrass; [9]): 60 | Plant response rating, Ryegrass, Italian (Italian ryegrass; [6]): 80 | Plant response rating, Ryegrass, Italian (Italian ryegrass; [1]): 95 | Plant response rating, Nutsedge, Purple (purple nutsedge; 62 g ai/ha, scale 0 to 100): 0 | Plant response rating, Nutsedge, Purple (purple nutsedge; [9]): 30 | Plant response rating, Nutsedge, Purple (purple nutsedge; [6]): 30 | Plant response rating, Nutsedge, Purple (purple nutsedge; [1]): 50 | Blackgrass plant response rating (blackgrass; [10]): 40 | Plant response rating, Blackgrass (blackgrass; [3]): 40 | Plant response rating, Blackgrass (blackgrass; [7]): 30 | Plant response rating, Blackgrass (blackgrass; [8]): 30 | Plant response rating, Spiderwort (tropical spiderwort; 62 g ai/ha, scale 0 to 100): 60 | Plant response rating, Spiderwort (tropical spiderwort; [9]): 60 | Plant response rating, Spiderwort (tropical spiderwort; [6]): 60 | Plant response rating, Spiderwort (tropical spiderwort; [1]): 100 | Canarygrass plant response rating (canarygrass; [10]): 50 | Plant response rating, Canarygrass (canarygrass; [3]): 40 | Plant response rating, Canarygrass (canarygrass; [7]): 40 | Plant response rating, Canarygrass (canarygrass; [8]): 40
